Several values for one entry are separate records, joined by “and”; a condition that tells them apart may be missing. Identical values can stand only once.
Key:
[1] = clinical use; cited from earlier work
[2] = test system: human aortic endothelial cells (HAECs); experiment: Prostaglandin production in HAECs with/without fatty acids and AdCOX-1 transfection, EIA (Example II); assay type: cell-based; conditions: for enhancement of PGI2 production: HAECs, fatty acid stimulation (Discussion); for PGE1/PGE2 ratio: fatty acid-stimulated naïve HAECs; for PGE1 production / PGE2 production / PGI2 production: naïve (nontransfected) HAECs, 20 μM fatty acid, 45 minutes
[3] = test system: human coronary artery smooth muscle cells (HCASMCs); experiment: Prostaglandin production in HCASMCs with/without fatty acids and AdCOX-1 transfection, EIA (Example II); assay type: cell-based; conditions: for PGE1/PGE2 ratio: fatty acid-stimulated naïve HCASMCs; for increase of PGE1 production by stimulation: naive HCASMCs vs no stimulation; for PGE1 production / PGE2 production / PGI2 production: naïve (nontransfected) HCASMCs, 20 μM fatty acid, 45 minutes
[4] = test system: balloon-injured carotid arteries of New Zealand White rabbits; assay type: in vivo, New Zealand White rabbit; conditions: no vector (PBS), 20 μM fatty acid stimulation
Description: Balloon injury and local delivery of the COX-1 gene to carotid arteries of New Zealand White (NZW) rabbits were done according to a protocol approved by the animal committee at the University of Texas Houston Health Science Center. As described previously^31, rabbit anesthesia was performed prior to each surgery. In brief, a no. 4 catheter introducer was introduced into the right femoral artery of anesthetized rabbits. Heparin at a dose of 150 units/kg was then administered to prevent arterial thrombosis during angioplasty. A balloon catheter (2.5×20 mm, Baxter Healthcare Corporation) was inserted into the femoral introducer and advanced to the right carotid artery with the assist of a guide wire under fluoroscopy. Balloon angioplasty was performed using 5 inflations to 8 atm for 30 second each time. One minute reperfusion was allowed between inflations. After angioplasty, the balloon was retracted 15 mm, and the proximal end of the damaged artery was ligated over the tip of the deflated angioplasty catheter with 2-0 silk over umbilical tape, to prevent further injury. All blood was removed from the damaged artery by repeated flushing with saline through the wire port of the angioplasty catheter. Then the distal portion of the damaged artery was ligated. After removing the remaining saline, 1×10^10 PFU/ml AdCOX, Adnull or 1 ml of PBS were gradually introduced into the isolated artery, respectively. After incubating the virus in the artery for 30 min, the artery was flushed to remove virus or PBS and washed with saline. Finally, all incisions were repaired and the rabbits were monitored until they had recovered from anesthesia. Upon completing of surgery, the cut regions of rabbit were repaired and rabbits were recovered.
Balloon injury and local delivery of the COX-1 gene to carotid arteries of NZW rabbits (n=24) were performed as described above. Eight rabbits were treated with AdCOX, and a like number were respectively treated with Adnull and PBS.
Three days after local gene delivery, balloon-injured rabbits were sacrificed, and their carotid arteries were harvested as 2-cm-long artery rings. Each artery ring was cut open to expose the lumen and then into 6 small pieces. The pieces were washed 3 times with Dulbecco's modified Eagle's medium (DME; Invitrogen) and incubated with DMEM supplemented with 20 μM AA or DGLA and 2% FBS at 37° C. for 45 minutes. In each treatment group, 4 rabbits provided injured arteries for AA stimulation and 4 provided them for DGLA stimulation. Supernatants were collected and used for prostaglandin assays as described above. Each arterial piece was then dried and weighed.

HAEC = experiment: Western blot of COX-1 and COX-2 expression in HAEC; assay type: cell-based, human; conditions: normal HAEC, 10 ng/ml for 24 hour
HCASMC = experiment: Western blot of COX-1 and COX-2 expression in HCASMC; assay type: cell-based, human; conditions: normal HCASMC, 10 ng/ml for 24 hour
[5] = naïve HCASMCs vs no stimulation

Compound | enhancement of PGI2 production [2] | PGE1/PGE2 ratio [2] | increase of PGI2 production by stimulation (in words) ([2]; naive HAECs vs no stimulation) | PGE1 production [2] | PGE2 production [2] | PGI2 production [2] | PGE1/PGE2 ratio [3] | increase of PGE1 production by stimulation [3] | PGE1 production [3] | PGE2 production [3] | PGI2 production [3] | PGE1 production [4] | PGE2 production [4] | PGI2 production [4] | further results
CCCCC(C)(O)C/C=C/[C@H]1[C@H](O)CC(=O)[C@@H]1CCCCCCC(=O)OC (mixture of isomers) [Misoprostol] | – | – | – | – | – | – | – | – | – | – | – | – | – | – | adverse side effects (including diarrhea and abdominal pain), patients affected [1]: 14-40 % of patients
CCCCC/C=C\C/C=C\C/C=C\C/C=C\CCCC(=O)O [AA, arachidonic acid] | 25% | 0.16 | one third | 1.10 ± 0.41 ng/10^6 cells | 6.17 ± 0.83 ng/10^6 cells | 2.70 ± 0.13 ng/10^6 cells | 0.27 | > 2 fold | 14.04 ± 1.5 ng/10^6 cells | 51.8 ± 2.46 ng/10^6 cells | 37.12 ± 2.54 ng/10^6 cells | 31 ± 19 pg/mg arterial tissue | 74 ± 42 pg/mg arterial tissue | 432 ± 135 pg/mg arterial tissue | PGE1 production, times lower than in DGLA-stimulated counterparts ([2]; AA-stimulated naïve HAECs): > 4 times; increase of PGE2 production by stimulation ([2]; naïve HAECs vs no stimulation): ~2 fold; suppression of PGE1 production by stimulation ([2]; naïve HAECs vs no stimulation): ~24%; PGE1 production, times lower than in DGLA-stimulated counterparts ([3]; AA-stimulated naïve HCASMCs): > 2 times; increase of PGE2 production by stimulation [3, 5]: ~2 fold; increase of PGI2 production by stimulation [3, 5]: ~3 fold
CCCCC/C=C\C/C=C\C/C=C\CCCCCCC(=O)O [DGLA, dihommo-γ-linolenic acid] | 5% | 3.22 and 3 | only slightly | 5.00 ± 0.51 ng/10^6 cells | 1.55 ± 0.37 ng/10^6 cells | 2.15 ± 0.33 ng/10^6 cells | 1.46 and 1.5 | > 4 fold | 32.34 ± 2.41 ng/10^6 cells | 22.05 ± 1.45 ng/10^6 cells | 9.30 ± 1.09 ng/10^6 cells | 47 ± 3.90 pg/mg arterial tissue | 51 ± 20 pg/mg arterial tissue | 443 ± 201 pg/mg arterial tissue | increase of PGE1 production by stimulation ([2]; naive HAECs vs no stimulation): > 3 fold; suppression of PGE2 production by stimulation ([2]; naïve HAECs vs no stimulation): 35-50%; lowering of PGI2 production by stimulation [3, 5]: 28%; suppression of PGE2 production by stimulation [3, 5]: 35-50%
IL-1β: interleukin-1β, used to induce COX-2 in normal cells | – | – | – | – | – | – | – | – | – | – | – | – | – | – | COX-2 induction (immunoblot) (HAEC): capable of prompting COX-2 induction; COX-2 induction (immunoblot) (HCASMC): capable of prompting COX-2 induction

— US20050130925A1, “Method and composition for enhancing PGE1 production in vascular endothelial and smooth muscle cells” (The Board of Regents of the University of Texas System, priority 2003, published 2005)
